Data taken from PMC7240968, “Synthesis and Biological Evaluation of Imidazo[2,1-b]Thiazole based Sulfonyl Piperazines as Novel Carbonic Anhydrase II Inhibitors” (Metabolites, 2020).

Experiments:
[1] = target: T1, hCA XII (Homo sapiens, UniProt O43570); assay: stopped flow CO2 hydrase assay, hCA XII; type: biochemical; conditions: recombinant tumor associated isoform; mean from 3 different assays, errors ±5–10%
T1 construct: made in house
Description: (§1) The newly synthesized imidazo[2,1-b]thiazole-sulfonyl piperazines (9aa-ee) were screened for their CA inhibition activity against cytosolic (hCA I, hCA II) and the tumor associated (hCA IX, hCAXII) isoforms by a stopped flow CO2 hydrase assay.
(§2) The inhibition assay of selected CA isozymes was performed using SX.18V-R Applied Photophysics (Oxford, UK) stopped flow instrument. 10 mM Hepes (pH 7.4) as a buffer, with Phenol Red (at a concentration of 0.2 mM) as an indicator, 0.1M Na2SO4 or NaClO4 (To maintain the constant ionic strength; these anions are not inhibitory in the used concentration), following the CA-catalyzed CO2 hydration reaction for a period of 5–10 s. […] Stock solutions of inhibitors were prepared at a concentration of 10 mM (in DMSO-water 1:1 v/v) and dilutions up to 0.01 nM done with the assay buffer mentioned above. […] Inhibitor and enzyme solutions were pre-incubated together for 10 min at room temperature prior to assay, in order to allow for the formation of the E-I complex. […] The inhibition constants were obtained by non-linear least square methods using the Cheng-Prusoff equation, as reported earlier, [24, 25] and represent the mean from at least three different determinations. All CA isozymes used here were recombinant proteins obtained as reported earlier by our group.

[2] = target: T2, hCA II (Homo sapiens, UniProt P00918); assay: stopped flow CO2 hydrase assay, hCA II; type: biochemical; conditions: recombinant cytosolic isoform; mean from 3 different assays, errors ±5–10%
T2 construct: made in house
Description: as §1, §2

[3] = target: T3, hCA I (Homo sapiens, UniProt P00915); assay: stopped flow CO2 hydrase assay, hCA I; type: biochemical; conditions: recombinant cytosolic isoform; mean from 3 different assays, errors ±5–10%
T3 construct: made in house
Description: as §1, §2

[4] = target: T4, hCA IX (Homo sapiens, UniProt Q16790); assay: stopped flow CO2 hydrase assay, hCA IX; type: biochemical; conditions: recombinant tumor associated isoform; mean from 3 different assays, errors ±5–10%
T4 construct: made in house
Description: as §1, §2

T1 sequence (O43570 25-354): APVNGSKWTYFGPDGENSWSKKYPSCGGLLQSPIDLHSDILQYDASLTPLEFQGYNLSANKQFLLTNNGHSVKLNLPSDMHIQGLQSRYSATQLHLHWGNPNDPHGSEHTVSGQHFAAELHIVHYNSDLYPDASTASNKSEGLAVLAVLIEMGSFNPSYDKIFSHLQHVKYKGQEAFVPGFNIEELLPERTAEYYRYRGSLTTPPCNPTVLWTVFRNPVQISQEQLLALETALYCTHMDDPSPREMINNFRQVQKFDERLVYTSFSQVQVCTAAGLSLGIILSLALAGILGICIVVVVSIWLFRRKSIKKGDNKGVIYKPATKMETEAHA
T3 sequence (P00915 whole entry, canonical isoform): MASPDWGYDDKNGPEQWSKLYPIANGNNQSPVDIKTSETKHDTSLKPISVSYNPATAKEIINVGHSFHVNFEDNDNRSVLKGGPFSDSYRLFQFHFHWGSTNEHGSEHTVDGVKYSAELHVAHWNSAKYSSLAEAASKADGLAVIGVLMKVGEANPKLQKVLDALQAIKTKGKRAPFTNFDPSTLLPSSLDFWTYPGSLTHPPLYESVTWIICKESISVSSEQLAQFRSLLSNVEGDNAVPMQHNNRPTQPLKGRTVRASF

Compound | melting point [°C] | Ki [1] [µM] | Ki [2] [µM] | Ki [3] [µM] | Ki [4] [µM]
Cc1ccc(-c2cnc3sc(C(=O)N4CCN(S(=O)(=O)c5ccc(C(C)(C)C)cc5)CC4)cn23)cc1 [Compound 9bd, (4-((4-(Tert-butyl)phenyl)sulfonyl)piperazin-1-yl)(5-(p-tolyl)imidazo[2,1-b]thiazol-2-yl)methanone] | 222 to 224 | – | – | – | –
(4-((4-(Tert-butyl)phenyl)sulfonyl)piperazin-1-yl)(5-(4-chlorophenyl)imidazo[2,1-b]thiazol-2-yl)methanone [Compound 9ce] | – | > 100 | 62.1 | > 100 | > 100
(4-((4-(Tert-butyl)phenyl)sulfonyl)piperazin-1-yl)(5-(4-fluorophenyl)imidazo[2,1-b]thiazol-2-yl)methanone [Compound 9de] | – | > 100 | > 100 | > 100 | > 100
(4-((4-Chlorophenyl)sulfonyl)piperazin-1-yl)(5-(4-fluorophenyl)imidazo[2,1-b]thiazol-2-yl)methanone [Compound 9dc] | – | > 100 | 98.2 | > 100 | > 100
(4-((4-Chlorophenyl)sulfonyl)piperazin-1-yl)(5-phenylimidazo[2,1-b]thiazol-2-yl)methanone [Compound 9ec] | – | > 100 | > 100 | > 100 | > 100
(4-((4-Methoxyphenyl)sulfonyl)piperazin-1-yl)(5-(p-tolyl)imidazo[2,1-b]thiazol-2-yl)methanone [Compound 9ba] | – | > 100 | > 100 | > 100 | > 100
(4-((4-Methoxyphenyl)sulfonyl)piperazin-1-yl)(5-phenylimidazo[2,1-b]thiazol-2-yl)methanone [Compound 9ea] | – | > 100 | > 100 | > 100 | > 100
(5-(4-Chlorophenyl)imidazo[2,1-b]thiazol-2-yl)(4-((4-chlorophenyl)sulfonyl)piperazin-1-yl)methanone [Compound 9cc] | – | > 100 | 57.8 | > 100 | > 100
(5-(4-Chlorophenyl)imidazo[2,1-b]thiazol-2-yl)(4-((4-methoxyphenyl)sulfonyl)piperazin-1-yl)methanone [Compound 9ca] | – | > 100 | 79.9 | > 100 | > 100
(5-(4-Chlorophenyl)imidazo[2,1-b]thiazol-2-yl)(4-(phenylsulfonyl)piperazin-1-yl)methanone [Compound 9cd] | – | > 100 | 71.2 | > 100 | > 100
(5-(4-Chlorophenyl)imidazo[2,1-b]thiazol-2-yl)(4-tosylpiperazin-1-yl)methanone [Compound 9cb] | – | > 100 | > 100 | > 100 | > 100
(5-(4-Fluorophenyl)imidazo[2,1-b]thiazol-2-yl)(4-((4-methoxyphenyl)sulfonyl)piperazin-1-yl)methanone [Compound 9da] | – | > 100 | 67.9 | > 100 | > 100
(5-(4-Fluorophenyl)imidazo[2,1-b]thiazol-2-yl)(4-(phenylsulfonyl)piperazin-1-yl)methanone [Compound 9dd] | – | > 100 | > 100 | > 100 | > 100
(5-(4-Fluorophenyl)imidazo[2,1-b]thiazol-2-yl)(4-tosylpiperazin-1-yl)methanone [Compound 9db] | – | > 100 | > 100 | > 100 | > 100
(5-(4-Methoxyphenyl)imidazo[2,1-b]thiazol-2-yl)(4-((4-methoxyphenyl)sulfonyl)piperazin-1-yl)methanone [Compound 9aa] | – | > 100 | > 100 | > 100 | > 100
(5-(4-Methoxyphenyl)imidazo[2,1-b]thiazol-2-yl)(4-(phenylsulfonyl)piperazin-1-yl)methanone [Compound 9ad] | – | > 100 | > 100 | > 100 | > 100
(5-(p-Tolyl)imidazo[2,1-b]thiazol-2-yl)(4-tosylpiperazin-1-yl)methanone [Compound 9bb] | – | > 100 | 76.4 | > 100 | > 100
(5-Phenylimidazo[2,1-b]thiazol-2-yl)(4-(phenylsulfonyl)piperazin-1-yl)methanone [Compound 9ed] | – | > 100 | > 100 | > 100 | > 100
(5-Phenylimidazo[2,1-b]thiazol-2-yl)(4-tosylpiperazin-1-yl)methanone [Compound 9eb] | – | > 100 | > 100 | > 100 | > 100
